Where two headings read alike, the source gives them in different places.
Assays:
[1] = Kondo et al. 1994, susceptibility to humidity/water, cited from earlier work
[2] = Accelerated ICH stability test with pure solid form II, polymorphic transformation followed by FT-IR in KBr; type: physicochemical; details: 40°±2C and 75±5% relative humidity, over 6 months
Excerpt: For detectable polymorphic transformations is intended transformations visible from changes of the FT-IR spectrum of form II of torsemide registered in KBr. Specifically, the formation of a contamination of 1% or greater (by weight) of form I of torsemide in a sample of pure form II of torsemide would be a detectable polymorphic transformation by means of the relative change of the FT-IR spectrum registered in KBr which would imply the appearance of a peak in the position at 1697 cm^−1. Accelerated Test with Pure Solid Form II at 40°±2C and 75±5% of Relative Humidity. This type of test which is prescribed according to ICH (Q1A, “Stability testing of new Drug Substances and new Drug Products”, 1st edition Oct. 27, 1997 and 2nd edition Nov. 8, 2000) allows, according to internationally recognised procedures, to extrapolate the results obtained with this accelerated test to a mock storage period at room temperature for over 2 years. The inventors of the present patent application have subjected a series of pure samples of form II of torsemide to this test, and have assayed with the frequency and to the prescribed terms, the possible polymorphic transformations of the samples through registration of the FT-IR spectra in KBr on a Jasco apparatus.

[3] = Prolonged ICH stability test with pure solid form II, polymorphic transformation followed by FT-IR in KBr; type: physicochemical; details: 25°±2C and 60±5% relative humidity, after 13 months
Procedure: Prolonged Test with Pure Solid Form II at 25°±2C and 60±5% of Relative Humidity. This type of test which is prescribed according to ICH (Q1A, “Stability testing of new Drug Substances and new Drug Products”, 1st edition Oct. 27, 1997 and 2nd edition Nov. 8, 2000) follows possible degradation of the samples under more mild conditions, but over prolonged periods. The inventors of the present patent application have subjected a series of pure samples of form II of torsemide to this test, and have assayed with the frequency and to the prescribed terms, the possible polymorphic transformations of the samples through the registration of the FT-IR spectra in KBr on the Jasco apparatus.

[4] = Drastic test with pure solid form II at 80° C. for two days in the absence of light; type: physicochemical
Procedure: Drastic Test with Pure Solid Form II at 80° C. for Two Days (Carried Out in the Absence of Light).

[5] = Transformation of form II suspended in water (strong heating or prolonged treatment); type: physicochemical; details: suspended in water and strongly heated, or suspended in water and subjected to prolonged treatment
Excerpt: 27, 1997 and 2nd edition Nov. 8, 2000) and recognised on the world scale for the evaluation of the stability of pharmaceutical substances.
Form I of torsemide is obtainable from form II of torsemide as above according to the instructions of Kondo, namely by suspension of an aliquot of form II in water (approx. 23 parts by weight) and subsequent stirring for 20 days at room temperature. The melting point of form I of torsemide, used by the inventors of the present patent application, measured with a Büchi B-540 according to USP class 1a (temperature increments of 1° C.±0.5° C./min starting from 10° C. from the expected melting point, inserting the sample at 5° C. from the melting point, then 1° C.±0.5° C./min until reaching the melting point), is 160.1°–160.5° C.

Row | SMILES | relative stability of the polymorphic form [1] | polymorphic transformation (FT-IR in KBr, Jasco) [2] | polymorphic transformation (FT-IR in KBr, Jasco) [3] | polymorphic transformation [4] | polymorphic transformation in aqueous suspension [5] | relative stability of the polymorphic form ([1]; listed as form II)
1 | Cc1cccc(Nc2ccncc2S(=O)(=O)NC(=O)NC(C)C)c1 [form I, 1-isopropyl-3-[(4-m-toluidino-3-pyridyl)sulphonyl]-urea] | sufficiently stable | – | – | – | – | –
2 | Cc1cccc(Nc2ccncc2S(=O)(=O)NC(=O)NC(C)C)c1 [form II of torsemide, 1-isopropyl-3-[(4-m-toluidino-3-pyridyl)sulphonyl]-urea] | – | no detectable polymorphic transformation | could not see any detectable polymorphic transformation | does not show a detectable polymorphic transformation | transforms into form I | poorly stable
